From patent publication US6444685B1, “N-(4-sulfonylaryl)Cyclylamine 2-hydroxyethylamines as beta-3 adrenergic receptor agonists” (Wyeth, priority 2000, dated 2002)

How the values were obtained:
[1] = target: T1, human β1-adrenergic receptor (Homo sapiens, UniProt P08588); assay: cAMP accumulation (SPA) in CHO cells transfected with human β1 adrenergic receptor; format: cell-based; details: for EC50: CHO cells transfected with human β1-AR, cAMP, 15 min incubation, 10^−8 to 10^−4 M, read-out: beta-1 EC50; for beta-1 (IA) maximal response relative to isoproterenol: IA = % activity compound / % activity isoproterenol at 10^−5 M, CHO human β1 cells
T1 construct: expressed in transfected cells; host or cells: CHO cells
T1 sequence (P08588 whole entry): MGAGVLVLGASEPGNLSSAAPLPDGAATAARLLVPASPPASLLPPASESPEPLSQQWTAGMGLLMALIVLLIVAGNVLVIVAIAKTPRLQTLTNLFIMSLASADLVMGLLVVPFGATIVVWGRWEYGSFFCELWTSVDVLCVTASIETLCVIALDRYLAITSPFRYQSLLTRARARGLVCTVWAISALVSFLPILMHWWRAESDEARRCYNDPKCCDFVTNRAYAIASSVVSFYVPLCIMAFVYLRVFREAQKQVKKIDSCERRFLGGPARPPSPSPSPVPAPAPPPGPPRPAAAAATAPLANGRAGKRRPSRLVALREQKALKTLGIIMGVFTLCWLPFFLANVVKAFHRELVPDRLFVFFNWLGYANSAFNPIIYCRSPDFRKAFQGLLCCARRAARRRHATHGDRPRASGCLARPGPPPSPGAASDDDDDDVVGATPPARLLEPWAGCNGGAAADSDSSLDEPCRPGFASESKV
How it was run: (§1)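 CHO cell clones expressing 70–110 fmol/mg protein of receptor were pre-incubated 30 min at 37 °C, then treated 15 min at 37 °C with compound (10^−8 to 10^−4 M) in DMEM with 250 μM IBMX and 1 mM ascorbic acid. cAMP was read by SPA after acid stop. EC50 and IA were expressed relative to maximal 10^−5 M isoproterenol response.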

[2] = target: T2, human β3 adrenergic receptor (Homo sapiens, UniProt P13945); assay: cAMP accumulation (SPA) in CHO cells transfected with human β3 adrenergic receptor; format: cell-based; details: for EC50: CHO cells expressing human β3-AR, cAMP, 30 min incubation, 10^−9 M to 10^−5 M, read-out: beta-3 EC50; for beta-3 (IA) maximal response relative to isoproterenol: IA = % activity compound / % activity isoproterenol at 10^−5 M, CHO human β3 cells
T2 construct: Full length β3 AR clones (402 amino acids) containing the last 6 amino acids of hβ3— AR are prepared; expressed in transfected cells; host or cells: CHO cells
T2 sequence (P13945 whole entry): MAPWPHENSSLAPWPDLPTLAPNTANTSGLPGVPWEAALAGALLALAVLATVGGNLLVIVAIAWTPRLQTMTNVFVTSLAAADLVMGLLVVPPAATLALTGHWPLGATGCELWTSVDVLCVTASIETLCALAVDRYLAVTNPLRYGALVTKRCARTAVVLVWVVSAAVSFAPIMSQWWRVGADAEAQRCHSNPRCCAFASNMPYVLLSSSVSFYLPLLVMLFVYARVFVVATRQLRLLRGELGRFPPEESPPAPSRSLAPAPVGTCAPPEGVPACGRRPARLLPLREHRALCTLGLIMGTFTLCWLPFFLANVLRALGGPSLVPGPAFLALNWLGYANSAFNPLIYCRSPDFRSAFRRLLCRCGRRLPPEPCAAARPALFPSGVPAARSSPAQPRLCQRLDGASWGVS
How it was run: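 CHO cells expressing human β3-AR (70–110 fmol/mg protein) treated with compound at 10^−9 to 10^−5 M in DMEM with 250 μM IBMX and 1 mM ascorbic acid, 30 min, 37 °C. cAMP measured by SPA; EC50 derived, and intrinsic activity expressed relative to the maximal response of 10^−5 M isoproterenol.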

[3] = target: T3, human β2-adrenergic receptor (Homo sapiens, UniProt P07550); assay: cAMP accumulation (SPA) in CHO cells transfected with human β2 adrenergic receptor; format: cell-based; details: for EC50: CHO cells transfected with human β2-AR, cAMP, 15 min incubation, 10^−8 to 10^−4 M, read-out: beta-2 EC50; for beta-2 (IA) maximal response relative to isoproterenol: IA = % activity compound / % activity isoproterenol at 10^−5 M, CHO human β2 cells
T3 construct: expressed in transfected cells; host or cells: CHO cells
T3 sequence (P07550 whole entry): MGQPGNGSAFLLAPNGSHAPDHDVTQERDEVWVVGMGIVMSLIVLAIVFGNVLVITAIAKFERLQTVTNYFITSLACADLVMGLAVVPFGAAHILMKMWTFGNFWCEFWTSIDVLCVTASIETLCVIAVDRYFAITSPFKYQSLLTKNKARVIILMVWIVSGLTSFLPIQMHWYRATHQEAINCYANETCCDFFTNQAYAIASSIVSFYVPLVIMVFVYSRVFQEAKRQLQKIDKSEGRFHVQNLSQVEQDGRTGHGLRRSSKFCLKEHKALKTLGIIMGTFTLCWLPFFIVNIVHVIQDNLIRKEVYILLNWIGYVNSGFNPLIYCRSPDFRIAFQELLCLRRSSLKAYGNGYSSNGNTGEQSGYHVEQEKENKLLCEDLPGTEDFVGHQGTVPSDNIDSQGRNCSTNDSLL
How it was run: as §1

SMILES	EC50 [1] [µM]	beta-1 (IA) maximal response relative to isoproterenol [1]	melting point [°C]	EC50 [2] [µM]	beta-3 (IA) maximal response relative to isoproterenol [2]	EC50 [3] [µM]	beta-2 (IA) maximal response relative to isoproterenol [3]
CC#CCC(CC#CC)(C(=O)OC(C)(C)C)S(=O)(=O)c1ccc(N2CCC(NC[C@H](O)c3ccc(O)c(NS(C)(=O)=O)c3)CC2)cc1 [Example 47, 2-(2-Butynyl)-2-[(4-{4-[((2R)-2-hydroxy-2-{4-hydroxy-3-[(methylsulfonyl)amino]-phenyl}ethyl)amino]-1-piperidinyl}phenyl)sulfonyl]-4-hexynoicacid tert-Butyl Ester]	1	(0.47)	93 to 95	0.006	(0.93)	3.2	(0.46)
CC#CCC(CC#CC)(C(=O)O)S(=O)(=O)c1ccc(N2CCC(NC[C@H](O)c3ccc(O)c(NS(C)(=O)=O)c3)CC2)cc1 [Example 48, 2-(2-Butynyl)-2-[(4-{4-[((2R)-2-hydroxy-2-{4-hydroxy-3-[(methylsulfonyl)amino]phenyl}ethyl)amino]-1-piperidinyl}phenyl)sulfonyl]-4-hexynoicacid]	10	(0.26)	175 to 177	0.59	(1)	10	(0.54)
CS(=O)(=O)Nc1cc([C@@H](O)CNC2CCN(c3ccc(S(=O)(=O)N4CC(=O)NC4=O)cc3)CC2)ccc1O [Example 50, N-[5-((1R)-2-{1-[4-(2,4-Dioxo-imidazolidine-1-sulfonyl)-phenyl]piperidin-4-ylamino}-1-hydroxy-ethyl)-2-hydroxy-phenyl]-methanesulfonamide]	2.6	(0.72)	200 to 202	0.01	(1)	7	(0.35)
CC(C)(C)OC(=O)CNS(=O)(=O)c1ccc(N2CCC(NC[C@H](O)c3ccc(O)c(NS(C)(=O)=O)c3)CC2)cc1 [Example 52, tert-Butyl 2-{[(4-{4-[((2R)-2-hydroxy-2-{4-hydroxy-3-[(methylsulfonyl)amino]-phenyl}ethyl)amino]-1-piperidinyl}phenyl)sulfonyl]amino}acetate]	0.96	(0.48)	113 to 115	0.006	(1)	0.48	(0.65)
CC(C)(C)OC(=O)CN(CC(=O)OC(C)(C)C)S(=O)(=O)c1ccc(N2CCC(NC[C@H](O)c3ccc(O)c(NS(C)(=O)=O)c3)CC2)cc1 [Example 54, tert-Butyl 2-{[2-(tert-butoxy)-2-oxoethyl][(4-{4-[((2R)-2-hydroxy-2-{4-hydroxy-3-[(methylsulfonyl)amino]phenyl}ethyl)amino]-1-piperidinyl}-phenyl)sulfonyl]amino}acetate]	2.3	(0.33)	164 to 166	0.014	(1.2)	12	(0.42)
CCOC(=O)CNS(=O)(=O)c1ccc(N2CCC(NC[C@H](O)c3ccc(O)c(NS(C)(=O)=O)c3)CC2)cc1 [Example 56, Ethyl 2-{[(4-{4-[((2R)-2-Hydroxy-2-{4-hydroxy-3-[(methylsulfonyl)amino]-phenyl}ethyl)amino]-1-piperidinyl}phenyl)sulfonyl]amino}acetate]	9.5	(0.31)	105 to 107	0.014	(1)	1.6	(0.27)
CCOC(=O)NC(=O)CNS(=O)(=O)c1ccc(N2CCC(NC[C@H](O)c3ccc(O)c(NS(C)(=O)=O)c3)CC2)cc1 [Example 58, Ethyl 2-{[(4-{4-[((2R)-2-Hydroxy-2-{4-hydroxy-3-((methylsulfonyl)amino]-phenyl}ethyl)amino]piperidin-1-yl}phenyl)sulfonyl]amino}acetylcarbamate]	3.6	(0.65)	98 to 105	0.011	(1)	3.9	(0.31)
COC(=O)N(CC(=O)OC(C)(C)C)S(=O)(=O)c1ccc(N2CCC(NC[C@H](O)c3ccc(O)c(NS(C)(=O)=O)c3)CC2)cc1 [Example 59, tert-Butyl [[(4-{4-[((2R)-2-Hydroxy-2-{4-hydroxy-3-[(methylsulfonyl)amino]-phenyl}ethyl)amino]piperidin-1-yl}phenyl)sulfonyl](methoxycarbonyl)-amino]acetate]	7.8	(0.52)	110 to 115	0.015	(0.98)	12	(0.2)
CCOC(=O)CN(Cc1cc(F)ccc1F)S(=O)(=O)c1ccc(N2CCC(NC[C@H](O)c3ccc(O)c(NS(C)(=O)=O)c3)CC2)cc1 [Example 61, Ethyl {(2,5-Difluorobenzyl)[(4-{4-[((2R)-2-hydroxy-2-{4-hydroxy-3-[(methyl-sulfonyl)amino]phenyl}ethyl)amino]piperidin-1-yl}phenyl)sulfonyl]amino}acetate]	1.9	(0.3)	85 to 90	0.001	(1.1)		(0.2)
CCCCNC(=O)NS(=O)(=O)c1ccc(N2CCC(NC[C@H](O)c3ccc(O)c(NS(C)(=O)=O)c3)CC2)cc1 [Example 62, 1-[4-({[(Butylamino)carbonyl]amino}sulfonyl)phenyl]-4-[((2)-2-hydroxy-2-{4-hydroxy-3-[(methylsulfonyl)amino]phenyl}ethyl)amino]piperidine]	5	(0.32)	100 to 102	0.009	(1)	5	(0.31)
CCOC(=O)CN1CCN(S(=O)(=O)c2ccc(N3CCC(NC[C@H](O)c4ccc(O)c(NS(C)(=O)=O)c4)CC3)cc2)CC1 [Example 64, Ethyl {4-((4-{4-[((2R)-2-Hydroxy-2-{4-hydroxy-3-[(methylsulfonyl)amino]-phenyl}ethyl)amino]piperidin-1-yl}phenyl)sulfonyl]piperazin-1-yl}acetate]		(0.11)	91 to 92	0.004	(1.1)	5.9	(0.22)
CN1CCN(S(=O)(=O)c2ccc(N3CCC(NC[C@H](O)c4ccc(O)c(NS(C)(=O)=O)c4)CC3)cc2)CC1 [Example 66, N-(2-Hydroxy-5-{(1R)-1-hydroxy-2-[(1-{4-[(4-methylpiperazin-1-yl)sulfonyl]phenyl}piperidin-4-yl)amino]ethyl}phenyl)methanesulfonamide]	2.7	(0.44)	89 to 91	0.025	(0.95)		(0.17)
